Test results: patent US11534404B2, “Multilayer beads for pharmaceutical use” (Sucampo AG, priority 2016, dated 2022)

Key:
Type in all cases: physicochemical
[1] = Lubiprostone-excipient contact stability study, solid solution (Example 1B); conditions: for % of the initial: 55° C. 10 d, remaining lubiprostone by HPLC
Experimental: Additional test samples were prepared for the study by admixing various excipients and lubiprostone drug in ratios of about 50:50 and about 99:1. Solid solutions were prepared by mixing lubiprostone/MeCN and Excipient/MeCN, combining these mixtures and then removing the solvent by evaporation. The prepared mixtures were then placed under accelerated stress stability conditions at 55° C. for 10 days. After 10 days, these samples were analyzed by HPLC method to determine the amount of remaining lubiprostone and impurities generated as a result of the degradation of lubiprostone.

[2] = Lubiprostone-excipient contact stability study, mechanical mixing of powder (Example 1C); conditions: for % of the initial: 55° C. 10 d, remaining lubiprostone by HPLC
Experimental: Test samples were prepared by direct (mechanical) mixing of various excipients and lubiprostone drug in approximately 50:50 and 99:1 ratios. The mechanical mixing of lubiprostone and excipients was conduct by admixing them using a conventional mortar. The prepared mixtures were then placed under accelerated stress stability conditions at 55° C. for 10 days. After 10 days, these samples were analyzed by HPLC to determine the amount of remaining lubiprostone and impurities generated as a result of the degradation of lubiprostone.

[3] = Lubiprostone-excipient contact stability study (Example 1A); conditions: excipient:lubiprostone approx 50:50; 55° C. 10 days; HPLC
Experimental: Test samples were prepared for the study in approximately 50:50 proportion using various excipients and lubiprostone drug. These prepared mixtures were then placed on accelerated stress stability conditions at 55° C. for 10 days. After 10 days, these samples were analyzed by a suitable HPLC method to determine assay (the amount of remaining Lubiprostone) and impurities generated due to degradation of lubiprostone.

[4] = Mechanical mixing of powder 50:50
[5] = Mechanical mixing of powder 99:1

CCCCC(F)(F)[C@@]1(O)CC[C@H]2[C@@H](CC(=O)[C@@H]2CCCCCCC(=O)O)O1 [Lubiprostone, (−)-7-[(2R,4aR,5R,7aR)-2-(1,1-difluoropentyl)-2-hydroxy-6-oxooctahydrocyclopenta[b]pyran-5-yl]heptanoic acid]
55° C. 10 d Impurities ([1]; Solid solution 50:50): 33.5 | % of the initial ([1]; Solid solution 50:50): 44.4% | 55° C. 10 d Impurities ([1]; Solid solution 99:1): 35.5 | % of the initial ([1]; Solid solution 99:1): 44.4% | 55° C. 10 d Impurities [2, 4]: 24.5 | % of the initial [2, 4]: 55.6% | 55° C. 10 d Impurities [2, 5]: 24.5 | % of the initial [2, 5]: 55.6% | Assay (% of initial) [3]: 42.3% | Total Impurities [3]: 59.0%
